Here are results for three molecules from paper PMC7719179, “Small molecule inhibition of Dynamin-dependent endocytosis targets multiple niche signals and impairs leukemia stem cells” (Nature Communications, 2020).

Values joined by “and” are separate entries in the source; they are usually repeats but may differ in a detail not shown here. Equal values may be shown once. Read-outs that look alike come from different tables or passages of the source.

In data set [1] the test system is pre-LSC activity of Lmo2^Tg DN3a thymocytes. The data set is described as follows: Transplantation of in vitro treated Lmo2^Tg DN3a thymocytes (fold expansion, engraftment). The data set is classed as in vivo, mouse. As to conditions: thymus of recipients 6 weeks post-transplantation of Lmo2^Tg DN3a thymocytes treated in vitro (Dynole 34-2 0.2 μM, Ruxolitinib 0.2 μM, DAPT 0.1 μM); individual recipients. Here is the method:
Single-cell suspension of murine thymus cells were intravenously injected into sublethally irradiated (650 Rads) isogenic Ly5.1 (Cd45.1) mice. Fold expansion was calculated by dividing the absolute output number of donor-derived DN3a cells harvested at the experimental endpoint by the respective number of DN3a thymocytes injected in each recipient. Limiting dilution transplantations were performed as described, by injecting various doses (10^1 to 10^6) of thymocytes per recipient, and mice were scored positive when T-cell lineage reconstitution assessed 6 weeks after transplantation was >1%. Leukemia-propagating cell frequency was calculated by applying Poisson statistics using the ELDA: Extreme Limiting Dilution Analysis software (Walter and Eliza Hall Institute Bioinformatics, Parkville VIC, Australia)[96]. Limiting dilution transplantations were performed independently from any other transplantation assays, using thymocytes from three different Lmo2^Tg mice for each cohort. Kaplan–Meier survival and statistical analysis were performed using GraphPad Prism. 6.0 software (GraphPad Software Inc, San Diego CA, USA).

For data set [2], the system named is DN3a thymocytes. As to the kind of experiment: Relative viability and LC50 on DN3a thymocytes of WT, Lmo2^Tg, Lmo2^Tg;STAT5-CA^Tg and Lmo2^Tg;N1-ICD^Tg mice, 48 h. As to conditions: for viability at 200 µM / viability at 40 µM: Mus musculus, Thymocyte. Here is the method: Pre-leukemic and leukemic thymocytes were purified by flow cytometry and co-cultured on GFP-positive OP9 and OP9-DL1 stromal cell lines, as described previously. Thymocytes were co-cultured in reconstituted alpha-MEM medium (#12318, Gibco, Grand Island NY, USA) supplemented with 20% FCS (#12318), HEPES 10 mM (#15630-080), sodium pyruvate 1 mM (#11360-070), β-mercaptoethanol 55 μM (#21985-023), Glutamax 2 mM (#15750-060), 1% Penicillin/Streptomycin (#15140-122), 5 ng/mL rmFLT-3 ligand (#250-31 L, Pepro Tech), 5 ng/mL rmIL-7 (#217-17, Pepro Tech) and 25 ng/mL rmSCF (#250-03, Pepro Tech). After 48 h of co-culture, thymocytes were counted and analysed by FACS. […]
viability of wild-type (WT), Lmo2 Tg, Lmo2Tg;STAT5-CA Tg and Lmo2Tg;N1-ICD Tg DN3a thymocytes […]
normalized to cells treated with vehicle (%DMSO). Mean ± SEM of n=4 biological replicates. b, […]
thymocytes from 6-week old wild-type (WT), Lmo2 Tg, Lmo2Tg;STAT5-CATg and Lmo2Tg ;N1-ICD Tg mice. Mean ± SD of n=4 biological replicates are shown. 2-way ANOVA with Tukey’s correction test; […]
(1 picture or pasted object on this page, not shown here)
*P<0.05, *** P<0.001 compared to WT; #P<0.05, ##P<0.01, ###P<0.001 compared to L mo2Tg. c, Levels of pStat5 (left) after stimulation with IL-7 , as well as Hes1 expression (right) after co-culture on OP9- […]
(0.2 µM), Ruxolitinib (0.2 µM) and DAPT (0.1 µM). Unstimulated cells were used as negative controls (dashed line). Student’s t -test, ** P<0.01, *** P<0.001 compared to unstimulated cells. MFI ± SEM, 1-way ANOVA with Tukey’s correction test; **P<0.01, *** P<0.001 compared to vehicle. d, Clonogenic assay of normal murine hematopoietic stem and progenitor cells (HSPCs) cultured in the presence […]
± SD, Student’s t -test ( n=4) **P<0.01 compared to vehicle. e, Relative viability of wild-type (WT), […]
2 (0.2 µM), Ruxolitinib (0.2 µM) and DAPT (0.1 µM) for 48 hours. Viability was normalized to cells treated with vehicle (%DMSO, which was reported as 100). Mean ± SEM, 2-way ANOVA with Tukey’s correction test, **P<0.01, *** P<0.001 compared to vehicle.

Data set [3] relates to pStat5, Hes1, p-Erk, p-p38, p-S6, p-Akt in Lmo2^Tg DN3a cells. As to the kind of experiment: Growth factor-mediated signalling effectors in co-cultured Lmo2^Tg DN3a cells (flow cytometry). The class given is cell-based, mouse. Here is the method:
Phosphoflow analysis was performed as previously described. Briefly, 2 × 10^6 cells stained for surface markers were subsequently resuspended into PBS 1× + 4% v/v paraformaldehyde and incubated for 10 min at 4 °C for fixation. Fixed cells were washed twice using PBS 1×, then resuspended in pre-chilled at −20 °C Perm Buffer III (BD Pharmingen) and incubated 30 min at 4 °C for permeabilization. Cells were washed twice using PBS 1× and incubated overnight at 4 °C in PBS 1× + 2% v/v fetal calf serum (FCS) with Cell Signalling purified antibodies (Genesearch Pty Ltd, Arundel QLD, Australia) against pSTAT5 (Tyr694; #9359), phospho-p38 MAPK (Thr180/Tyr182; #4511), phospho-p44/42 (Erk1/2; #9102), phospho-S6 (Ser235/236; #4856) and phospho-Akt (Ser473; #9271) or isotype control. For intracellular HES1 detection, cells stained for surface markers were subsequently fixed and permeabilized using the BD Cytofix/Cytoperm^TM Kit and incubated overnight at 4 °C in PBS 1× + 2% v/v FCS with a purified antibody against HES1 (D6PU; #11988, Cell Signalling) or isotype control. After staining with primary antibodies for phosphoflow or intracellular detection, cells were incubated in permeabilization buffer with donkey Alexa Fluor 488-conjugated anti-rabbit secondary antibody (A-21206, lot #1910751, Molecular Probes, Invitrogen) or goat Alexa Fluor 546-conjugated anti-rabbit secondary antibody (A-11035, lot #1904467, Molecular Probes, Invitrogen) for 1 h on ice, and washed twice in PBS 1×. Fluorescence-activated cell sorting (FACS) analysis was performed using LSRII and LSR Fortessa cytometers, following the gating strategies described in Supplementary Fig. 11. Cell sorting was performed with a FACSAria or BD Influx.
A general note: A flow cytometer gives signals particle by particle.

The mark [4] stands for this setting: Supplementary Figure 2c, unstimulated and vehicle controls in the same table.
Setting [5] is: read-out: Relative % viable cells, Lmo2Tg;STAT5-CATg DN3a thymocytes, dose 0.2 mM (so in the source).
Where [6] appears, read: Lmo2^Tg DN3a cells co-cultured on OP9-DL1 with cytokines, individual animals.

For the molecule `C[C@H](NC(=O)Cc1cc(F)cc(F)c1)C(=O)N[C@H](C(=O)OC(C)(C)C)c1ccccc1` [DAPT, N-[N-(3,5-Difluorophenacetyl)-L-alanyl]-S-phenylglycine t-butyl ester], in data set [1], the “Fold expansion DN3a cells” value was 0.05 fold and 0.01 fold and 0.07 fold and 2.41 fold and 0.20 fold and 11.64 fold. In addition, the “fold resistance of Lmo2^Tg;N1-ICD^Tg DN3a cells vs Lmo2^Tg thymocytes” value in data set [2] (LC50 comparison, 48 h) amounted to 9 fold. The “Survival (% DMSO)” value in data set [2] (Lmo2Tg) is 17.19 % DMSO and 25.07 % DMSO and 13.99 % DMSO; in data set [2] (Lmo2Tg;Notch1Tg), 55.35 % DMSO and 68.13 % DMSO and 61.12 % DMSO and 65.99 % DMSO; in data set [2] (Lmo2Tg;STAT5-CATg), 52.45 % DMSO and 51.11 % DMSO and 34.78 % DMSO. Moreover, the “Relative % viable cells” value in data set [2] (Lmo2Tg DN3a thymocytes, dose 0.02 mM (so in the source)) is 79.43% and 55.29% and 67.53%; in data set [2] (Lmo2Tg DN3a thymocytes, dose 0.1 mM (so in the source)), 25.07% and 13.99% and 17.19%; in data set [2] (Lmo2Tg DN3a thymocytes, dose 0.5 mM (so in the source)) it was 5.42% and 10.32% and 11.23%; in data set [2] (Lmo2Tg DN3a thymocytes, dose 2.5 mM (so in the source)), 5.22% and 9.91% and 8.68%; in data set [2] (Lmo2Tg DN3a thymocytes, dose 12.5 mM (so in the source)), 5.76% and 9.27% and 6.48%; in data set [2] (Lmo2Tg;Notch1Tg DN3a thymocytes, dose 0.02 mM (so in the source)), 68.73% and 83.56% and 62.24% and 87.12%. Also, the “Relative % viable cells” value is 55.35% and 68.13% and 61.12% and 65.99% in data set [2] (Lmo2Tg;Notch1Tg DN3a thymocytes, dose 0.1 mM (so in the source)); 52.22% and 56.33% and 58% in data set [2] (Lmo2Tg;Notch1Tg DN3a thymocytes, dose 0.5 mM (so in the source)); 76.45% and 84.74% and 59.85% in data set [2] (Lmo2Tg;STAT5-CATg DN3a thymocytes, dose 0.02 mM (so in the source)); 52.45% and 51.11% and 34.78% in data set [2] (Lmo2Tg;STAT5-CATg DN3a thymocytes, dose 0.1 mM (so in the source)); 38.67% and 42.63% and 42.16% in data set [2] (Lmo2Tg;STAT5-CATg DN3a thymocytes, dose 0.5 mM (so in the source)); 27.14% and 38.85% and 21.86% in data set [2] (Lmo2Tg;STAT5-CATg DN3a thymocytes, dose 2.5 mM (so in the source)). Also, the “Relative % viable cells” value in data set [2] (Lmo2Tg;STAT5-CATg DN3a thymocytes, dose 12.5 mM (so in the source)) was 19.43% and 16.58% and 21.18%. For the same molecule, the “Hes1 (MFI)” value in data set [3] (setting [4]) was 1314 MFI and 1222 MFI and 1307 MFI.
With `CCCCCCCCNC(=O)C(C#N)=Cc1cn(CCCN(C)C)c2ccccc12` [Dynole 34-2, 2-Cyano-N-octyl-3-(1-(3-dimethylaminopropyl)-1H-indol-3-yl)-acrylamide], in data set [1], the “Fold expansion DN3a cells” value was 0.05 fold and 0.01 fold and 3.00 fold and 6.41 fold and 5.91 fold and 0.19 fold and 17.69 fold. In data set [2] (LC50 comparison, 48 h), the “relative resistance conferred by mutations downstream of DDE (STAT5-CA^Tg, N1-ICD^Tg) vs Lmo2^Tg DN3a” value is recorded as 3.4 fold. The “Relative % viable cells” value in data set [2] (Lmo2Tg DN3a thymocytes, dose 0.04 mM (so in the source)) is 53.38% and 35.26% and 57.31% and 29.03%; in data set [2] (Lmo2Tg DN3a thymocytes, dose 25 mM (so in the source)), 0%; in data set [2] (Lmo2Tg;Notch1Tg DN3a thymocytes, dose 1 mM (so in the source)), 27.05% and 30.53% and 26.36%; in data set [2] (Lmo2Tg;STAT5-CATg DN3a thymocytes, dose 0.04 mM (so in the source)), 60% and 110.87% and 62.94% and 65.19%; in data set [2] (Lmo2Tg;STAT5-CATg DN3a thymocytes, dose 0.2 mM (so in the source)) it was 40.03% and 50.05% and 55.36%; in data set [2] (Lmo2Tg;STAT5-CATg DN3a thymocytes, dose 25 mM (so in the source)) it was 0% and 5.23% and 8.65%. Also, the “Relative % viable cells” value in data set [2] (WT DN3a thymocytes, dose 0.04 mM (so in the source)) was 81.18% and 50% and 68.95% and 71.06% and 67.17%; in data set [2] (WT DN3a thymocytes, dose 5 mM (so in the source)) it was 5.59% and 1.77% and 8.44% and 6.33% and 6.38%; in data set [2] (WT DN3a thymocytes, dose 25 mM (so in the source)) it was 0% and 8.83%. The viability at 200 µM in data set [2] (setting [5]) was 37.5%. In addition, in data set [2] (WT vs Lmo2^Tg DN3a, result in words), the “sensitivity of wild-type (WT) DN3a thymocytes relative to pre-LSCs” value is on record as “fivefold less sensitive”. Also, the “Hes1 (MFI)” value in data set [3] (setting [6]) was 5911 MFI and 6176 MFI and 5994 MFI and 6141 MFI; in data set [3] (setting [4]) it was 1218 MFI and 1199 MFI and 1165 MFI. Moreover, the “p-Akt (MFI)” value in data set [3] (setting [6]) is 1455 MFI and 2044 MFI and 1472 MFI and 1916 MFI. Moreover, in data set [3] (setting [6]), the “p-Erk (MFI)” value is 2822 MFI and 3661 MFI and 3448 MFI and 2830 MFI. Further, the “p-S6 (MFI)” value in data set [3] (setting [6]) is 4904 MFI and 4987 MFI and 5062 MFI and 5235 MFI. In addition, the “p-p38 (MFI)” value in data set [3] (setting [6]) is 4351 MFI and 3539 MFI and 4397 MFI and 3757 MFI. Moreover, in data set [3] (setting [6]), the “pStat5 (MFI)” value was 2745 MFI and 2767 MFI and 2938 MFI and 3210 MFI.
In the case of `N#CC[C@H](C1CCCC1)n1cc(-c2ncnc3[nH]ccc23)cn1` [Ruxolitinib], the “Fold expansion DN3a cells” value in data set [1] was 0.06 fold and 0.01 fold and 5.29 fold and 8.54 fold and 22.76 fold and 8.51 fold. The “fold resistance of Lmo2^Tg;STAT5-CA^Tg DN3a thymocytes vs Lmo2^Tg DN3a cells” value in data set [2] (LC50 comparison, 48 h) is listed as 5.3 fold. Moreover, the “Survival (% DMSO)” value in data set [2] (Lmo2Tg;STAT5-CATg) is 69.32 % DMSO and 78.95 % DMSO and 73.54 % DMSO; in data set [2] (WT), 39.65 % DMSO and 53.08 % DMSO and 37.17 % DMSO. Moreover, the viability at 40 µM came out at 88.8% in data set [2] (read-out: Relative % viable cells, Lmo2Tg DN3a thymocytes, dose 0.04 mM (so in the source)) and 95.5% in data set [2] (read-out: Relative % viable cells, Lmo2Tg;STAT5-CATg DN3a thymocytes, dose 0.04 mM (so in the source)). For the same molecule, in data set [2] (setting [5]), the viability at 200 µM stood at 69.3%. In data set [3] (setting [4]), the “Hes1 (MFI)” value was 1340 MFI and 1445 MFI and 1491 MFI.
